Reference: patent publication US10851073B2, “Protein tyrosine phosphatase inhibitors and methods of use thereof” (Calico Life Sciences LLC, priority 2019, dated 2020)

Key:
[1] = molecular target: T1, His tagged PTPN2 (TC45) protein (Homo sapiens, UniProt P17706); test: Mobility shift assay used to determine potency of PTPN2 inhibitors; assay type: biochemical; settings: enzyme 0.5 nM, substrate 2 μM; read-out: PTPN2 MSA IC50
T1 construct: made in house
T1 sequence (P17706 with tags, fused parts or gaps isoform P17706-2): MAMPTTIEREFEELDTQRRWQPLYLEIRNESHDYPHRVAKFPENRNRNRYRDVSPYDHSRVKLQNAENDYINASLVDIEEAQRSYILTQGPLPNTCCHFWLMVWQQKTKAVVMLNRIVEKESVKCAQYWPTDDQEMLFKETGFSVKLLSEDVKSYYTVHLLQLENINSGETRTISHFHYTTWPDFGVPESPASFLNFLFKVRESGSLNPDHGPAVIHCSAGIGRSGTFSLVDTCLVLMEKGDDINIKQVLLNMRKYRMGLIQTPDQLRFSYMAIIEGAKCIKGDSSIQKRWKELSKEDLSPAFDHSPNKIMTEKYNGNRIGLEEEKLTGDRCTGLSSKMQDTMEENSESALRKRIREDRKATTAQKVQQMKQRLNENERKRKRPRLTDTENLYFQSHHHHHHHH
Summary of the method: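 Enzyme (0.5 nM) preincubated with compound (12-point, 1:3 dilution) 10 min at room temperature in 50 mM HEPES pH 7.5, 1 mM EGTA, 10 mM EDTA, 0.01% Tween 20, 2 mM DTT; OG488-labelled phospho-insulin-receptor peptide substrate (2 μM) added for 10 min, then quenched. Microfluidic mobility shift (ex 488/em 530 nm) gave % conversion; IC50 from % inhibition.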

[2] = molecular target: T2, His tagged full-length PTPN1 protein (Homo sapiens, UniProt P18031); test: Mobility shift assay (MSA) used to determine potency of PTPN1 inhibitors; assay type: biochemical; settings: enzyme 0.5 nM, substrate 2 μM
T2 construct: made in house
T2 sequence (P18031 with tags, fused parts or gaps): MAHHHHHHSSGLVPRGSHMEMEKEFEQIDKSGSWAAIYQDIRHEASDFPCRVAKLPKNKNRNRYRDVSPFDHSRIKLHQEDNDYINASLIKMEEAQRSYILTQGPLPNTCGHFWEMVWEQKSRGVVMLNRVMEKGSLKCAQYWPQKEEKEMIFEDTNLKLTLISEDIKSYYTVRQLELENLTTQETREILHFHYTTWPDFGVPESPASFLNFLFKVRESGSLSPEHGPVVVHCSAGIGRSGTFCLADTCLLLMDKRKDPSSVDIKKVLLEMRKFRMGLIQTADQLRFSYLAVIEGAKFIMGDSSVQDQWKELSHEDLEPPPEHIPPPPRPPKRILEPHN
Summary of the method: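 Full-length His-tagged human PTPN1 (0.5 nM) was preincubated 10 min at room temperature with compound (12-point, 1:3 dilution) in HEPES pH 7.5 buffer with EGTA, EDTA, Tween 20 and DTT. A 2 μM fluorescent phospho-insulin receptor peptide was then added for 10 min before quench. Mobility-shift % conversion gave % inhibition and IC50.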

[3] = tested on: B16F10 mouse melanoma cells; test: B16F10 IFNγ-induced cellular growth inhibition assay; assay type: cell-based; settings: B16-F10, with 0.5 ng/mL IFNγ, read-out: B16F10 GI IC50
Summary of the method: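 B16F10 cells grown in DMEM+10% FBS, with or without 0.5 ng/mL final mouse IFNγ, and dosed in triplicate at 100 μM to 0.001 μM final (0.1% DMSO). Confluence imaged every 6 h for 5 days; percent growth inhibition versus DMSO/with-IFNγ control taken once DMSO/no-IFNγ wells exceeded 95% confluence, giving IC50.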

| Structure (SMILES) | IC50 [2] [nM] | IC50 [3] [nM] | IC50 [1] [nM] |
| --- | --- | --- | --- |
| O=C1CN(c2c(O)cc3c(c2F)CC(OCC2CC(F)(F)C2)CC3)S(=O)(=O)N1 (stereo not drawn) [Compound 119, 5-{7-[(3,3-difluorocyclobutyl)methoxy]-1-fluoro-3-hydroxy-5,6,7,8-tetrahydronaphthalen-2-yl}-1λ^6,2,5-thiadiazolidine-1,1,3-trione] | 1 to 10 | 1000 to 10000 | 1 to 10 |
| COC(C)(C)CCNC1CCc2cc(O)c(N3CC(=O)NS3(=O)=O)c(F)c2C1 (stereo not drawn) [Compound 122, 5-{1-fluoro-3-hydroxy-7-[(3-methoxy-3-methylbutyl)amino]-5,6,7,8-tetrahydronaphthalen-2-yl}-1λ^6,2,5-thiadiazolidine-1,1,3-trione] | 10 to 100 | 1000 to 10000 | 1 to 10 |
| CC(C)(CCNC1CCc2cc(O)c(N3CC(=O)NS3(=O)=O)c(F)c2C1)C(F)(F)F (stereo not drawn) [Compound 123, 5-{1-fluoro-3-hydroxy-7-[(4,4,4-trifluoro-3,3-dimethylbutyl)amino]-5,6,7,8-tetrahydronaphthalen-2-yl}-1λ^6,2,5-thiadiazolidine-1,1,3-trione] | 1 to 10 | 1000 to 10000 | 1 to 10 |
| O=C1CN(c2c(O)cc3c(c2F)CC(NCC(F)(F)c2ccccc2)CC3)S(=O)(=O)N1 (stereo not drawn) [Compound 125, 5-{7-[(2,2-difluoro-2-phenylethyl)amino]-1-fluoro-3-hydroxy-5,6,7,8-tetrahydronaphthalen-2-yl}-1λ^6,2,5-thiadiazolidine-1,1,3-trione] | 10 to 100 | 10000 to 100000 | 1 to 10 |
| CC(C)(O)CCNC1CCc2cc(O)c(N3CC(=O)NS3(=O)=O)c(F)c2C1 (stereo not drawn) [Compound 127, 5-{1-fluoro-3-hydroxy-7-[(3-hydroxy-3-methylbutyl)amino]-5,6,7,8-tetrahydronaphthalen-2-yl}-1λ^6,2,5-thiadiazolidine-1,1,3-trione] | 1 to 10 | < 1000 | 1 to 10 |
| O=C1CN(c2c(O)cc3c(c2F)CC(NCCC(O)(C(F)(F)F)C(F)(F)F)CC3)S(=O)(=O)N1 (stereo not drawn) [Compound 130, 5-(1-fluoro-3-hydroxy-7-{[4,4,4-trifluoro-3-hydroxy-3-(trifluoromethyl)butyl]amino}-5,6,7,8-tetrahydronaphthalen-2-yl)-1λ^6,2,5-thiadiazolidine-1,1,3-trione] | 1 to 10 | 1000 to 10000 | 1 to 10 |
| O=C1CN(c2c(O)cc3c(c2F)CC(NCCC(C(F)(F)F)C(F)(F)F)CC3)S(=O)(=O)N1 (stereo not drawn) [Compound 131, 5-(1-fluoro-3-hydroxy-7-{[4,4,4-trifluoro-3-(trifluoromethyl)butyl]amino}-5,6,7,8-tetrahydronaphthalen-2-yl)-1λ^6,2,5-thiadiazolidine-1,1,3-trione] | 1 to 10 | < 1000 | 1 to 10 |
| O=C1CN(c2c(O)cc3c(c2F)CC(OCCCC(F)(F)F)CC3)S(=O)(=O)N1 (stereo not drawn) [Compound 142, 5-[1-fluoro-3-hydroxy-7-(4,4,4-trifluorobutoxy)-5,6,7,8-tetrahydronaphthalen-2-yl]-1λ^6,2,5-thiadiazolidine-1,1,3-trione] | 10 to 100 | 10000 to 100000 | 1 to 10 |
| CC(C)(C#N)CCNC1CCc2cc(O)c(N3CC(=O)NS3(=O)=O)c(F)c2C1 (stereo not drawn) [Compound 150, 4-{[8-fluoro-6-hydroxy-7-(1,1,4-trioxo-1λ^6,2,5-thiadiazolidin-2-yl)-1,2,3,4-tetrahydronaphthalen-2-yl]amino}-2,2-dimethylbutanenitrile] | 1 to 10 | 1000 to 10000 | 1 to 10 |

Further lines, with some results ahead:

| IC50 [2] [nM] | IC50 [3] [nM] | Structure (SMILES) | IC50 [1] [nM] |
| --- | --- | --- | --- |
| 10 to 100 | 1000 to 10000 | O=C1CN(c2c(O)cc3c(c2F)CC(NCCC(F)(F)F)CC3)S(=O)(=O)N1 (stereo not drawn) [Compound 116, 5-{1-fluoro-3-hydroxy-7-[(3,3,3-trifluoropropyl)amino]-5,6,7,8-tetrahydronaphthalen-2-yl}-1λ^6,2,5-thiadiazolidine-1,1,3-trione] | 10 to 100 |
| 1 to 10 | < 1000 | O=C1CN(c2c(O)cc3c(c2F)CC(NCCCC(F)(F)F)CC3)S(=O)(=O)N1 (stereo not drawn) [Compound 120, 5-{1-fluoro-3-hydroxy-7-[(4,4,4-trifluorobutyl)amino]-5,6,7,8-tetrahydronaphthalen-2-yl}-1λ^6,2,5-thiadiazolidine-1,1,3-trione] | 1 to 10 |
| 1 to 10 | < 1000 | O=C1CN(c2c(O)cc3c(c2F)CC(NCCC2(C(F)(F)F)CC2)CC3)S(=O)(=O)N1 (stereo not drawn) [Compound 124, 5-[1-fluoro-3-hydroxy-7-({2-[1-(trifluoromethyl)cyclopropyl]ethyl}amino)-5,6,7,8-tetrahydronaphthalen-2-yl]-1λ^6,2,5-thiadiazolidine-1,1,3-trione] | 1 to 10 |
| 1 to 10 | 1000 to 10000 | O=C1CN(c2c(O)cc3c(c2F)CC(NCC(F)(F)CC2CC2)CC3)S(=O)(=O)N1 (stereo not drawn) [Compound 126, 5-{7-[(3-cyclopropyl-2,2-difluoropropyl)amino]-1-fluoro-3-hydroxy-5,6,7,8-tetrahydronaphthalen-2-yl}-1λ^6,2,5-thiadiazolidine-1,1,3-trione] | 1 to 10 |
| 1 to 10 | 1000 to 10000 | CC(C)CCN(C)C1CCc2cc(O)c(N3CC(=O)NS3(=O)=O)c(F)c2C1 (stereo not drawn) [Compound 128, 5-{1-fluoro-3-hydroxy-7-[methyl(3-methylbutyl)amino]-5,6,7,8-tetrahydronaphthalen-2-yl}-1λ^6,2,5-thiadiazolidine-1,1,3-trione] | 1 to 10 |
| 1 to 10 | < 1000 | CC(C)CCCNC1CCc2cc(O)c(N3CC(=O)NS3(=O)=O)c(F)c2C1 (stereo not drawn) [Compound 129, 5-{1-fluoro-3-hydroxy-7-[(4-methylpentyl)amino]-5,6,7,8-tetrahydronaphthalen-2-yl}-1λ^6,2,5-thiadiazolidine-1,1,3-trione] | 1 to 10 |
| 10 to 100 | 1000 to 10000 | O=C1CN(c2c(O)cc3c(c2F)CC(NCCc2ccccn2)CC3)S(=O)(=O)N1 (stereo not drawn) [Compound 135, 5-(1-fluoro-3-hydroxy-7-{[2-(pyridin-2-yl)ethyl]amino}-5,6,7,8-tetrahydronaphthalen-2-yl)-1λ^6,2,5-thiadiazolidine-1,1,3-trione] | 10 to 100 |
| 10 to 100 | 1000 to 10000 | O=C1CN(c2c(O)cc3c(c2F)CC(NCCC(O)C(F)(F)F)CC3)S(=O)(=O)N1 (stereo not drawn) [Compound 151, 5-{1-fluoro-3-hydroxy-7-[(4,4,4-trifluoro-3-hydroxybutyl)amino]-5,6,7,8-tetrahydronaphthalen-2-yl}-1λ^6,2,5-thiadiazolidine-1,1,3-trione] | 1 to 10 |
| 1 to 10 | < 1000 | O=C1CN(c2c(O)cc3c(c2F)CC(NCC(O)CC(F)(F)F)CC3)S(=O)(=O)N1 (stereo not drawn) [Compound 156, 5-{1-fluoro-3-hydroxy-7-[(4,4,4-trifluoro-2-hydroxybutyl)amino]-5,6,7,8-tetrahydronaphthalen-2-yl}-1λ^6,2,5-thiadiazolidine-1,1,3-trione] | 1 to 10 |
| 10 to 100 | 1000 to 10000 | O=C1CN(c2c(O)cc3c(c2F)CC(NCCOC(F)F)CC3)S(=O)(=O)N1 (stereo not drawn) [Compound 157, 5-(7-{[2-(difluoromethoxy)ethyl]amino}-1-fluoro-3-hydroxy-5,6,7,8-tetrahydronaphthalen-2-yl)-1λ^6,2,5-thiadiazolidine-1,1,3-trione] | 1 to 10 |
| 10 to 100 | 1000 to 10000 | CC(C)C1CCN(C2CCc3cc(O)c(N4CC(=O)NS4(=O)=O)c(F)c3C2)C1 (stereo not drawn) [Compound 172, 5-{1-fluoro-3-hydroxy-7-[3-(propan-2-yl)pyrrolidin-1-yl]-5,6,7,8-tetrahydronaphthalen-2-yl}-1λ^6,2,5-thiadiazolidine-1,1,3-trione] | 10 to 100 |
| 1 to 10 | < 1000 | O=C1CN(c2c(O)cc3c(c2F)CC(NCCC2CCCCC2)CC3)S(=O)(=O)N1 (stereo not drawn) [Compound 173, 5-{7-[(2-cyclohexylethyl)amino]-1-fluoro-3-hydroxy-5,6,7,8-tetrahydronaphthalen-2-yl}-1λ^6,2,5-thiadiazolidine-1,1,3-trione] | 1 to 10 |
